Data as given in publication PMC4461042 (Structure (London, England : 1993), 2015).
Where two headings read alike, the source gives them in different places.

Tests used:
mice = settings: in vivo; cited from earlier work
A-AChBP = A-AChBP (Aplysia californica, UniProt Q8WSF8); assay type: binding; settings: for Kd: read-out: Kd/calc
human neuronal α7 nAChR [1] = biological target: T1, human neuronal α7 nAChR (Homo sapiens, UniProt P36544); assay type: cell-based
[2] = test system: muscle-type α1_2βγδ nAChR; settings: read-out: IC50, inhibition of ACh-evoked nicotinic currents; cited from earlier work
full-length α7 nAChR = full-length α7 nAChR (Homo sapiens, UniProt P36544); assay type: binding
L-AChBP = L-AChBP (Lymnaea stagnalis, UniProt P58154); assay type: binding
α4β2 nAChR [3] = biological target: T2, α4β2 nAChR (Homo sapiens, UniProt P17787+P43681); settings: cited from earlier work
[4] = biological target: T3, human neuronal α4β2 nAChR (Homo sapiens, UniProt P17787+P43681); settings: read-out: IC50, inhibition of ACh-evoked nicotinic currents; cited from earlier work
full-length α4β2 nAChR = full-length α4β2 nAChR (Homo sapiens, UniProt P17787+P43681); assay type: binding
human neuronal α7 nAChR [5] = biological target: T1, human neuronal α7 nAChR; settings: read-out: IC50, inhibition of ACh-evoked nicotinic currents; cited from earlier work
α3β2 nAChR [6] = biological target: T4, α3β2 nAChR (Homo sapiens, UniProt P17787+P32297); settings: cited from earlier work
α4β2 nAChR [7] = biological target: T2, α4β2 nAChR; assay type: binding
[8] = biological target: T3, human neuronal α4β2 nAChR; assay type: cell-based; settings: read-out: IC50, inhibition of ACh-evoked nicotinic currents
α3β2 nAChR [9] = biological target: T4, α3β2 nAChR; assay type: binding
A-AChBP/α7 chimera III = assay type: binding; settings: read-out: Kd/equ
[10] = test system: muscle-type α1_2βγδ nAChR; assay type: cell-based, Torpedo; settings: read-out: IC50, inhibition of ACh-evoked nicotinic currents
[11] = read-out: Kd/equ, competitive component
[12] = read-out: Kd/equ, non-competitive component

Chain of full-length α4β2 nAChR (P17787 26-502): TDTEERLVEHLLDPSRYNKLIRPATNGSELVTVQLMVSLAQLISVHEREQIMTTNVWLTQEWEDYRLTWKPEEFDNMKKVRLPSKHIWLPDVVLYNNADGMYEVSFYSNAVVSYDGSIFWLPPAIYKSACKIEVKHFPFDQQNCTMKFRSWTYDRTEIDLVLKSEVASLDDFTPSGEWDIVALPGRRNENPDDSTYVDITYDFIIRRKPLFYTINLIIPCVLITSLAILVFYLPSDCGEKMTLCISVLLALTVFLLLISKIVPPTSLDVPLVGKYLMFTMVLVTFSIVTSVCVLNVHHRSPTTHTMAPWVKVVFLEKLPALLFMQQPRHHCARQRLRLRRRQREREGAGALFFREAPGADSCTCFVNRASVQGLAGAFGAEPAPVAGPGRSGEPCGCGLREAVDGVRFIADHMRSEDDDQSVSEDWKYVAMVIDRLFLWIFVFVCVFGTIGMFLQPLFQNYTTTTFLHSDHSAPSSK
Chain of full-length α4β2 nAChR (P43681 29-627): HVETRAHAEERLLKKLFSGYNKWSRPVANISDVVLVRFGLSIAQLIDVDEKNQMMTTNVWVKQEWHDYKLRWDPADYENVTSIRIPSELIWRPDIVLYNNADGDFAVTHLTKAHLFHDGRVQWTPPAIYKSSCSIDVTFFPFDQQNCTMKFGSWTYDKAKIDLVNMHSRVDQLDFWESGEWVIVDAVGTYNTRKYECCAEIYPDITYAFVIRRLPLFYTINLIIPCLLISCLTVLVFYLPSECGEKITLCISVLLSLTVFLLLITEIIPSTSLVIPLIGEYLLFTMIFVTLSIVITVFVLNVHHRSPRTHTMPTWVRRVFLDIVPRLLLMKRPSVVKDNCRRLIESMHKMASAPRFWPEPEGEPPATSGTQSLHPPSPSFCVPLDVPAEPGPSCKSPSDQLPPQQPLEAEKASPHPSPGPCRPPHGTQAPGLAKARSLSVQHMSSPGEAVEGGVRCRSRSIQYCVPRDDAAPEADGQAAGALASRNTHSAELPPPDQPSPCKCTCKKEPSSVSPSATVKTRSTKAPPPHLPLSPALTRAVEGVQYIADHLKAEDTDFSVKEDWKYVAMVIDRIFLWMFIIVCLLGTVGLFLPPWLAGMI
Chain of L-AChBP (P58154 20-229 limits assumed): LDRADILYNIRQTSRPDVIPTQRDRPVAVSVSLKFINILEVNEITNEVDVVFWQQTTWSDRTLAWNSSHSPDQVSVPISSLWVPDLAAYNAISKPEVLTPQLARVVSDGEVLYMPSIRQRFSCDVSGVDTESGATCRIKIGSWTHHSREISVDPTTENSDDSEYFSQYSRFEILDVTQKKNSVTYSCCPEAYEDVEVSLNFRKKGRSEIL
Chain of A-AChBP (Q8WSF8 18-236 limits assumed): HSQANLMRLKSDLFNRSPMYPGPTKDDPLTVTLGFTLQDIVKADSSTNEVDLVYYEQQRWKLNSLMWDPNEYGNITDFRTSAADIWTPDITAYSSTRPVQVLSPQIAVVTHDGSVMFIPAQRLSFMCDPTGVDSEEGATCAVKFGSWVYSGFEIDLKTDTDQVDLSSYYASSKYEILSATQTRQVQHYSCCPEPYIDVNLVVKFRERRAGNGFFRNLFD
Chain of full-length α7 nAChR (P36544 23-502): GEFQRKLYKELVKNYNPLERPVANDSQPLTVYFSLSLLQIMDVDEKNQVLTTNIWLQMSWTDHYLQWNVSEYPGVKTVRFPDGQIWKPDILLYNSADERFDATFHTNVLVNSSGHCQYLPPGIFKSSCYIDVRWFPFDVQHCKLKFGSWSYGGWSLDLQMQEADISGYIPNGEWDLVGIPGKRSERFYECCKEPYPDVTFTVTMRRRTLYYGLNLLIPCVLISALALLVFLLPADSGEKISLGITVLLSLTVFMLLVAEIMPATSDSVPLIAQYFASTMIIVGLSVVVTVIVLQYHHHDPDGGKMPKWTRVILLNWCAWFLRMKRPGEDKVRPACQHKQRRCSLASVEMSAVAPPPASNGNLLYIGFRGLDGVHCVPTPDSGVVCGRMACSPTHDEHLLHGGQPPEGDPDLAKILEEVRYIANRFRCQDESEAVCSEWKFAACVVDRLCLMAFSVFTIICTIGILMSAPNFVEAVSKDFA
T1 sequence (P36544 23-502): as above
T4 sequence (P17787 26-502): as the sequence (P17787 26-502) above
T4 sequence (P32297 32-505): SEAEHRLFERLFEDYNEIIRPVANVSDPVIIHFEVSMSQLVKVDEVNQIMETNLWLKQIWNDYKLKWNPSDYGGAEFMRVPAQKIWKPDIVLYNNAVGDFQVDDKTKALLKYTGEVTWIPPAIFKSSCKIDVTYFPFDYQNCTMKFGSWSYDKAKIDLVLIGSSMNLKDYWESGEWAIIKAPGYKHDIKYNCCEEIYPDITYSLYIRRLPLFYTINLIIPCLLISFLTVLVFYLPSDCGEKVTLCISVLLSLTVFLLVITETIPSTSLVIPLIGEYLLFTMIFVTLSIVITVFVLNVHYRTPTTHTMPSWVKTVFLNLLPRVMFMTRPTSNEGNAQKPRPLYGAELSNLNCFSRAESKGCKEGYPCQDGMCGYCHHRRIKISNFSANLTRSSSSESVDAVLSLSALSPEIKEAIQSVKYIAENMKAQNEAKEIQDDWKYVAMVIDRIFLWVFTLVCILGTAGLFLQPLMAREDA
T2 sequence (P43681 29-627): as the sequence (P43681 29-627) above
T2 sequence (P17787 26-502): as the sequence (P17787 26-502) above
T3 sequence (P43681 29-627): as the sequence (P43681 29-627) above
T3 sequence (P17787 26-502): as the sequence (P17787 26-502) above

C=C1CCCC2=NC[C@H](C)[C@@H](C)C[C@@]23CCC(C(=O)O)=C[C@@H]3[C@@H]2O[C@]3(C[C@H]4CCC[C@@]5(CC[C@@]6(O[C@@H](CC[C@@]6(C)O)C1)O5)O4)C[C@@H](C)[C@@H](O)[C@H]2O3 [(−)-PnTx-A]
activity in mouse assays (mice): inactive

C=C1CCCC2=NC[C@H](C)[C@@H](C)C[C@@]23CCC(C(=O)O)=C[C@@H]3[C@@H]2O[C@]3(C[C@H]4CCC[C@@]5(CC[C@@]6(O[C@@H](CC[C@@]6(C)O)C1)O5)O4)C[C@@H](C)[C@@H](O)[C@H]2O3 [PnTx-A, pinnatoxin-A]
koff (A-AChBP): < 0.06 ^b min^−1 | kon (A-AChBP): 1.4 ± 0.7 ^a 10^9 M^−1min^−1 | Kd (A-AChBP): < 0.05 nM | greater potency (IC50) toward α7 than α4β2 (human neuronal α7 nAChR [1]): ~ 300 fold | IC50 [2]: 5.53 nM | Kd (full-length α7 nAChR; [11]): 0.18 ± 0.1 nM | Kd (full-length α7 nAChR; [12]): 2.6 ± 1.3 nM | koff (L-AChBP): 31.6 ± 7.9 ^a min^−1 | kon (L-AChBP): 0.21 ± 0.09 ^a 10^9 M^−1min^−1 | Kd (L-AChBP; read-out: Kd/calc): 170 ± 77 nM | Ki (α4β2 nAChR [3]): 15.6 ± 5.2 nM | IC50 [4]: 30.4 nM | Kd (full-length α4β2 nAChR; [11]): 95 ± 11 nM | Kd (full-length α4β2 nAChR; [12]): 199 ± 1 nM | IC50 (human neuronal α7 nAChR [5]): 0.107 nM | Ki (α3β2 nAChR [6]): 9.4 ± 1.9 nM

C=CC1=C[C@@H]2[C@@H]3O[C@]4(C[C@H]5CCC[C@@]6(CC[C@@]7(O[C@@H](CC[C@@]7(C)O)CC(=C)CCCC7=NC[C@H](C)[C@@H](C)C[C@@]72CC1)O6)O5)C[C@@H](C)[C@@H](O)[C@H]3O4 [PnTx-G, pinnatoxin-G]
koff (A-AChBP): 0.78 ± 0.06 ^b min^−1 | kon (A-AChBP): 0.91 ± 0.03 ^b 10^9 M^−1min^−1 | Kd (A-AChBP): 0.86 ± 0.09 nM | Ki (α4β2 nAChR [7]): 101 ± 30 nM | IC50 [8]: 4.9 nM | lower potency towards α7 compared with PnTx-A (human neuronal α7 nAChR [1]): ~ 50 fold | Ki (α3β2 nAChR [9]): 63.9 ± 1.2 nM | Kd (full-length α7 nAChR; [11]): 34 ± 4 nM | Kd (full-length α7 nAChR; [12]): 270 ± 50 nM | koff (L-AChBP): 60 ± 30 ^b min^−1 | kon (L-AChBP): 0.17 ± 0.01 ^b 10^9 M^−1min^−1 | Kd (L-AChBP; read-out: Kd/calc): 360 ± 210 nM | Kd (L-AChBP; read-out: Kd/equ): 315 nM | Kd (A-AChBP/α7 chimera III): 174 ± 19 nM | IC50 [10]: 3.82 nM | Kd (full-length α4β2 nAChR; [11]): 99 ± 50 nM | Kd (full-length α4β2 nAChR; [12]): 87 ± 62 nM | IC50 (human neuronal α7 nAChR [5]): 5.06 nM
